# Test results reported in US7999119B2, “Compounds having CRTH2 antagonist activity” (Oxagen Limited, priority 2006, dated 2011).
# “And” between values parts separate entries of the source, which are not always exact repeats. Equal values may be shown once. Read-outs that look alike come from different tables or passages of the source.
# Experiments:
# [1] = test system: DK-PGD2-induced blood eosinophilia; experiment: Inhibition of DK-PGD2-induced blood eosinophilia in rats; type: in vivo, rat; conditions: female rats, oral dosing 30 min before 10 μg DK-PGD2 intracardiac; ED50 from dose-response curve; the values are: ED50
# Experimental: Evaluation of Compounds of General Formula (I) as Inhibitors of 13,14-dihydro-15-keto prostaglandin D2 (DK-PGD2)-Induced Blood Eosinophilia in Rats
# The test compound was dissolved in DMSO and diluted with water to give a final dosing volume of 2 ml/kg.
# Female rats (175-250 g; UH colony) were dosed orally with test compound (or vehicle).
# 30 min after dosing all animals were anaesthetised with isoflurane.
# Following induction of anaesthesia, animals receive an intracardiac injection of 10 μg DK-PGD2 in 0.3 ml heparinised (10 U/ml) saline. Control animals received an injection of 0.3 ml heparinised saline.
# 60 min after the intracardiac injection, animals were injected with an overdose of pentobarbitone sodium and a blood sample was taken (into heparin) by cardiac puncture while the rat was anaesthetised but not dead.
# An aliquot of blood (100 μl) was added to Turk's solution and the total leukocyte count determined with a haemocytometer.
# A further aliquot of blood (500 μl) was mixed with an equal volume of 4% Dextran (mw 500,000) and the erythrocytes allowed to settle. A cytospin preparation was made from the resulting leukocyte rich fraction.
# Cytospin preparations were fixed with methanol (5 min) and stained with May-Grunwald (5 min) and Giemsa (15 min) stains. Finally cytospins were washed in phosphate buffer (pH6.8) and air dried.
# Differential leukocyte counts were obtained from the cytospin preparations.
# Blood eosinophil numbers were determined from the total leukocyte count and the percentage eosinophils (differential count).
# Because it was impractical to generate sufficient data in any given experiment, data were obtained over a number of replicate experiments. Data from these replicate experiments were pooled, to provide at least 5 animals in each group and a dose-response curve fitted following a significance test (Mann Whitney) to determine whether or not DK-PGD2 caused a significant increase in blood eosinophils (GraphPad, Prism). A difference between groups was taken to be significant when P<0.05. ED50 values were calculated from the dose-response curve.
# [2] = Pharmacokinetics following oral administration in the rat; type: in vivo; conditions: 3 mg/kg; for Fold over IC50 at 24 h: mean blood concentration at 24 h (rat, 3 mg/kg p.o.) divided by whole blood IC50 in ng/ml
# Experimental: Investigation of Pharmacokinetics of Compounds of General Formula (I) Following Oral Administration in the Rat
# Rats were weighed on the day of dosing.
# The test material was prepared as a 0.3 mg/mL suspension in 1% carboxy-methyl-cellulose (CMC).
# Three groups of 3 rats were dosed as follows:
# Doses were administered as a single oral dose using a gavage tube at a constant dose volume of 10 mL/kg.
# At each sampling time point blood samples (approximately 0.3 mL) was taken from a catheter inserted into a lateral tail vein prior to the start of the experiment. The final blood sample (approximately 2 mL) from each animal was taken by cardiac puncture under isoflurane anaesthesia following which the animal was killed by exsanguination. Blood samples were taken into individual heparinised containers. Blood samples were collected at the following times post-dose:
# Following collection, the blood samples were centrifuged (approximately 10,000×g, 2 min at 4° C.) and the plasma stored as one aliquot at approximately −20° C. pending analysis of drug concentrations by LC-MS/MS.
# The plasma samples were analysed for test material concentrations at BioDynamics using an LC-MS/MS method developed at BioDynamics.
# [3] = test system: PGD2 induced eosinophil shape change; experiment: Human whole blood eosinophil shape change assay; type: cell-based; conditions: Homo sapiens, Eosinophil
# Experimental: Human Whole Blood Eosinophil Shape Change Assay
# Compounds 1 to 3 were assayed for their effect on PGD2 induced eosinophil shape change and were compared with Comparator Compounds A to G.
# Shape Change Assay in Whole Blood
# Compounds (1 μl, 200× final concentration) were added directly to 200 μl whole blood, mixed well and incubated for 15 min, 37° C., 5% CO2. After this time, cell shape was fixed by addition of 300 μl Cytofix™ buffer (BD Biosciences), 15 min on ice. 10 ml RBC lysis buffer was added to the fixed cells, incubated 5 min, at room temperature and centrifuged, 300×g for 5 min. Supernatant (containing lysed red cells) was removed and the lysis step was repeated. Leukocytes were resuspended in 250 μl RPMI/10% FCS and shape change analysed by FACS. Eosinophils were gated out based on their autofluorescence and 2000 eosinophil events were counted per sample. Data were analysed in triplicate.
# [4] = rat, 3 mg/kg p.o, individual male animals
compound,measurement,setting,value
"Cc1c(Cc2ccc3ccccc3n2)c2cc(F)ccc2n1CC(=O)O [Compound A, (5-Fluoro-2-methyl-3-quinolin-2-ylmethyl-indol-1-yl)-acetic acid, reference compound]",Potency in inhibition of DK-PGD2-induced blood eosinophilia,[1],37 mg/kg
same,concentration at 0.25 h,"[2]; male, rat, plasma, po, rat, 3 mg/kg oral, 0.25 h, mean, read-out: Concentration in Blood, Mean",120 ng/mL
same,concentration at 0.5 h,"[2]; male, rat, plasma, po, rat, 3 mg/kg oral, 0.5 h, individual male animals, read-out: Concentration in Blood",426 ng/mL
same,concentration at 0.5 h,"[2]; male, rat, plasma, po, rat, 3 mg/kg oral, 0.5 h, mean, read-out: Concentration in Blood, Mean",357 ng/mL
same,concentration at 1 h,"[2]; male, rat, plasma, po, rat, 3 mg/kg oral, 1 h, individual male animals, read-out: Concentration in Blood",875 ng/mL
same,concentration at 1 h,"[2]; male, rat, plasma, po, rat, 3 mg/kg oral, 1 h, mean, read-out: Concentration in Blood, Mean",779 ng/mL
same,concentration at 2 h,"[2]; male, rat, plasma, po, rat, 3 mg/kg oral, 2 h, individual male animals, read-out: Concentration in Blood",1420 ng/mL
same,concentration at 2 h,"[2]; male, rat, plasma, po, rat, 3 mg/kg oral, 2 h, mean, read-out: Concentration in Blood, Mean",1250 ng/mL
same,concentration at 4 h,"[2]; male, rat, plasma, po, rat, 3 mg/kg oral, 4 h, individual male animals, read-out: Concentration in Blood",923 ng/mL
same,concentration at 4 h,"[2]; male, rat, plasma, po, rat, 3 mg/kg oral, 4 h, mean, read-out: Concentration in Blood, Mean",857 ng/mL
same,concentration at 6 h,"[2]; male, rat, plasma, po, rat, 3 mg/kg oral, 6 h, individual male animals, read-out: Concentration in Blood",404 ng/mL
same,concentration at 6 h,"[2]; male, rat, plasma, po, rat, 3 mg/kg oral, 6 h, mean, read-out: Concentration in Blood, Mean",451 ng/mL
same,concentration at 8 h,"[2]; male, rat, plasma, po, rat, 3 mg/kg oral, 8 h, mean, read-out: Concentration in Blood, Mean",354 ng/mL
same,concentration at 24 h,"[2]; male, rat, plasma, po, rat, 3 mg/kg oral, 24 h, mean, read-out: Concentration in Blood, Mean",43.7 ng/mL
same,AUC(0-inf),"[2]; male, rat, plasma, po, rat, 3 mg/kg p.o, individual male animals, read-out: AUCinf",8570 ng·h/mL
same,Cmax,"[2]; male, rat, plasma, po, rat, 3 mg/kg p.o, individual male animals, read-out: Cmax",1420 ng/mL
same,Tmax,"[2]; male, rat, plasma, po, rat, 3 mg/kg p.o, individual male animals, read-out: Tmax",2 h
same,AUC(0-inf),"[2]; male, rat, plasma, po, rat, 3 mg/kg p.o, mean, summary without unit (Table 12), read-out: AUCinf (mean)",8160 ng·h/mL
same,Cmax,"[2]; male, rat, plasma, po, rat, 3 mg/kg p.o, mean, summary without unit (Table 12), read-out: Cmax (mean)",1250 ng/mL
same,AUC(0-inf),"[2]; male, rat, plasma, po, rat, 3 mg/kg p.o, mean, read-out: AUCinf, Mean",8160 ng·h/mL
same,Cmax,"[2]; male, rat, plasma, po, rat, 3 mg/kg p.o, mean, read-out: Cmax, Mean",1250 ng/mL
same,Tmax,"[2]; male, rat, plasma, po, rat, 3 mg/kg p.o, mean, read-out: Tmax, Mean",2 h
same,half-life,"[2]; male, rat, plasma, po, rat, 3 mg/kg p.o, mean, read-out: T½, Mean (converted)",4.8 h
same,Fold over IC50 at 24 h,[2],1.2
same,Fold over IC50 at 24 h,[2]; listed as Compound (A),ca. 1.2
same,Concentration in Blood,"[2]; rat, 3 mg/kg oral, 0.25 h, individual male animals",139.1 ng/mL and 153.9 ng/mL and 68.3 ng/mL
same,Concentration in Blood,"[2]; rat, 3 mg/kg oral, 0.5 h, individual male animals",388.4 ng/mL and 256.3 ng/mL
same,Concentration in Blood,"[2]; rat, 3 mg/kg oral, 1 h, individual male animals",923.2 ng/mL and 538.8 ng/mL
same,Concentration in Blood,"[2]; rat, 3 mg/kg oral, 2 h, individual male animals",1309.0 ng/mL and 1013.6 ng/mL
same,Concentration in Blood,"[2]; rat, 3 mg/kg oral, 4 h, individual male animals",820.5 ng/mL and 827.0 ng/mL
same,Concentration in Blood,"[2]; rat, 3 mg/kg oral, 6 h, individual male animals",514.8 ng/mL and 432.6 ng/mL
same,Concentration in Blood,"[2]; rat, 3 mg/kg oral, 8 h, individual male animals",305.6 ng/mL and 521.9 ng/mL and 235.5 ng/mL
same,Concentration in Blood,"[2]; rat, 3 mg/kg oral, 24 h, individual male animals",51.8 ng/mL and 79.2 ng/mL and 0.0 ng/mL
same,AUCinf,[2]; [4],10429.2 ng·h/mL and 5473.9 ng·h/mL
same,Cmax,[2]; [4],1309.0 ng/mL and 1013.6 ng/mL
same,T½,[2]; [4],6.1 hours (2×) and 2.2 hours
same,Cmax (mean),"[2]; rat, 3 mg/kg p.o, mean, summary without unit (Table 12), in ng/mL",1246
same,AUCinf (mean),"[2]; rat, 3 mg/kg p.o, mean, summary without unit (Table 12), in ng·h/mL",8158
same,IC50,"[3]; 10 nm PGD2-induced eosinophil shape change, human whole blood, read-out: Whole Blood IC50",103 nM
same,IC50,"[3]; Table 12 summary of whole blood eosinophil shape change IC50, read-out: IC50 (μmol)",103 nM
same,IC50,"[3]; whole blood eosinophil shape change IC50 converted to ng/mL, read-out: IC50",0.0358 µg/mL
